The conditions of the assay: laminin fragments in a collagen-filled silicon tube. From the text: The present invention is directed to a biomaterial for nerve reconstruction, comprising chitin or chitosan with a surface modified by a laminin fragment having an amino acid sequence, such as YIGSR (tyrosine-isoleucine-glycine-serine-arginine) or IKVAV (isoleucine-lysine-valine-alanine-valine). This material may be used in the form of a nerve-bridging chitosan tube with a wall surface directly modified by the above laminin fragment, a nerve-bridging tube containing therein chitosan fibers with a surface modified by the above laminin fragment, or a nerve-bridging tube filled with chitosan gel modified by the above laminin fragment.

With “isoleucine-lysine-valine-alanine-valine [IKVAV]”, the “cell adhesion and neurite growth-promoting effects in vivo” value is “cannot achieve such effects”.
In the case of “tyrosine-isoleucine-glycine-serine-arginine [YIGSR]”, the “cell adhesion and neurite growth-promoting effects in vivo” value is on record as “cannot achieve such effects”.

(Values after patent publication US20040248777A1, “Biomaterials for nerve reconstruction and process for producing the same” (priority 2001, published 2004).)
